In patent US20230140798A1, “SYNTHETIC PEPTIDES DIRECTED AGAINST THE METABOTROPIC GLUTAMATE RECEPTOR 5” (Lactocore, Inc., priority 2020, published 2023):

How the values were obtained:
Type in all cases: in vivo
zebrafish (Danio rerio) [1] = assay: Novel Tank (NT) test
Experimental: (§1) The tested substances were injected into the zebrafish intraperitoneally using an insulin syringe (0.5 ml, 30 g) 10 minutes before the test (15 min before for ketamine only, according to the literature data). The saline solution (0.9% NaCl) was used as a solvent. Anesthesia and immobilization of the animals were achieved by placing them in water at a temperature of 10° C. Control group fish received intraperitoneal injections of an equivalent volume of solvent, also after going through a pre-cooling procedure.
A base, back, and side walls of the aquarium were made of matte black plastic; the front panel (shorter wall) was made of transparent Plexiglas.
(§2) The Novel Tank (NT) test was performed as previously described (Maximino et al. (2013). Behavioral and neurochemical changes in the zebrafish leopard strain. G2B. 12(5): 576-582). A video recording (background shooting) was started 20-30 seconds before the zebrafish were placed in the test aquarium. The experimental zebrafish was placed in the tank using a net. The recording was being conducted for 5 minutes. The test was carried out using EthoVision XT software package (Noldus, Wageningen, Netherlands). The software registered the distance covered by the animal, its speed, the number of visits to the three conventional zones of the aquarium: “bottom,” “center,” and […] (lower, middle, and upper thirds of the aquarium, respectively), the time spent in these zones, and the latency of a visit to the middle and to the surface of the aquarium.

zebrafish (Danio rerio) [2] = assay: Light/Dark Box (LDB) test
Experimental: as §1
The setup for the Light/Dark preference test consisted of three main parts: a launch compartment, a light compartment made of white plastic, and a dark compartment made of black plastic. The bright lighting in these tests was provided by a lamp on a stand (LED lamp PL, 11 W, light flux≈600 Lm, about 500 Lx directly above the water surface), which was attached to the upper part of the aquarium.
(§3) The light/dark box (LDB) test was performed as previously described (Maximino et al. (2011). Pharmacological analysis of zebrafish (Danio rerio) scototaxis. Prog. Neuro-Psychopharmacol. Biol. Psychiatry. 35(2): 624-631). The zebrafish was placed in a light compartment of an LDB using a net, the camera was switched on simultaneously, and the behavior of the zebrafish was recorded for 5 minutes. The video was processed using RealTimer (OpenScience). During the processing of records, the residence time and the number of visits to the light and dark compartments of the test setup were recorded, as well as the latent period of visiting both compartments.

zebrafish (Danio rerio) [3] = assay: Overall behavioral effect in zebrafish (NT and LDB tests)
Experimental: as §1, §2, §3

BALB/C mice [4] = assay: Open Field test, mice
Source text: Eighty male BALB/C mice were used as subjects in this example. Body weight of each specimen at the beginning of the experiment was between about 18 grams and about 20 grams. All animals were free from species-specific pathogens (specific pathogen free (SPF) status according to the Federation of European Laboratory Animal Science Associations (FELASA) list, 2014). The animals were kept in conditions of free access to water and food. The room was air-conditioned (exchange rate not less than 15 r/h) with a 12 h:12 h light-dark cycle (lights on at 09:00 am), air temperature 20-24°±2° C. (possible fluctuations of the limits no more than 2° C. per day), 30-70% humidity. For the study, the mice were separated into six different groups and the tested substances were administered to the groups as shown in Table 1. Drugs were daily prepared in fresh saline, according to the dosage. For intranasal administration (i.n.), a volume of 20 μl was used, for intraperitoneal (i.p.)—200 μl.
(§4) After an adaptation period, the test substance was intraperitoneally injected into mice. Behavioral parameters were measured in 30 minutes after injection. No more than one test was performed per day. The tests were administered as follows: day 1—the Open field test, day 8—the Elevated plus maze test, days 15-16—the Porsolt Forced Swim (two-day modification) test.
The test is an arena with a diameter of 63 cm, illuminated by bright light (500 Lx). Recorded parameters: total distance traveled (in cm), time spent moving (at a speed of more than five cm/s), time spent immobile (at a speed of less than 0.2 cm/s), average and maximum velocity, the number of episodes of motor activity and freezing. The same set of parameters, as well as the latent period and the time spent are recorded for the central sector. Defecation, rears (setting the animal on its hind legs) are evaluated visually. The test is designed to assess the level of motor and exploratory activity.

BALB/C mice [5] = assay: Elevated Plus Maze test, mice; conditions: for behavior in EPM: 1 mg/kg i.p.
Experimental: as §4
The test consists of two closed and two open arms located opposite each other (arm length 30 cm). The height of the sides of the closed arms is 15 cm. The entire installation is raised 70 cm above the floor. Open arms have a bright uniform illumination of 400 lux, closed −30-40 lux. The animal is placed in the center of the maze, with its head facing an open arm. Within five minutes, the Noldus EthoVision XT program (for behavior tracking) automatically records the following behavior parameters: total distance traveled (in cm), time spent moving (at a speed of more than five cm/s), time spent immobile (at a speed of less than 0.2 cm/s), average and maximum velocity, the number of episodes of mobility, and freezing. The same set of parameters, as well as the latent period and the time spent, are recorded for the central sector, the open and closed arms separately.

BALB/C mice [6] = assay: Porsolt Forced Swim test (two-day modification), mice
Experimental: as §4
As part of this modification, two tests were carried out within two days. The installation is a transparent cylinder, 30 cm high, 10 cm in diameter and filled with water (water temperature 21° C.-23° C.) to a mark at a height of 25 cm. On the first day, each animal was dropped into the cylinder for 10 minutes. Behavioral parameters were not recorded. The animals are dropped into the cylinder for ten minutes again on the second day. The duration of active (vigorous movements with all paws) and passive (weak strokes with hind legs) swimming, as well as immobility (immobilization) (Porsolt et al. (1977). Behavioral despair in mice: a primary screening test for antidepressants. Arch Int Pharmacodyn Ther, 229(2), 327-336) are recorded. After each test the mice are placed in a heated cage until dry. The behavior indicators in this test are processed using the Real Timer Program developed by NPK “OpenScience” LLC, Russia. The sequence of events and their duration were recorded as well as basic statistical data processing was conducted.

[7] = 10 mg/kg i.p., 30 minutes after injection

AYFE: tetrapeptide chosen as a negative control [reference compound]
behavior in NT test (zebrafish (Danio rerio) [1]; 1 mg/kg i.p.): did not alter the behavior | distance travelled (locomotor activity) (zebrafish (Danio rerio) [1]; 10 mg/kg i.p.): attenuation of locomotor activity | behavior in LDB test (zebrafish (Danio rerio) [2]; 1 mg/kg i.p.): did not alter the behavior | behavior in LDB test (zebrafish (Danio rerio) [2]; 10 mg/kg i.p.): did not differ from control values | overall behavioral effect in Danio rerio (zebrafish (Danio rerio) [3]; 1 mg/kg i.p.): did not show behavioral effects | overall behavioral effect in Danio rerio (zebrafish (Danio rerio) [3]; 10 mg/kg i.p.): produced sedation | time spent in the center (BALB/C mice [4]; 1 mg/kg i.p., 30 minutes after injection): 59.96±22.4 | behavior in EPM (BALB/C mice [5]): didn't affect the behavior | time spent active swimming (BALB/C mice [6]; 1 mg/kg i.p.): increased | time spent immobile (BALB/C mice [6]; 1 mg/kg i.p.): decreased

CNC1(c2ccccc2Cl)CCCCC1=O (stereo not drawn) [ketamine, reference compound]
distance travelled (zebrafish (Danio rerio) [1]; 20 mg/kg i.p.): tendency towards increased distance travelled | latency to the top of the NT (zebrafish (Danio rerio) [1]; 20 mg/kg i.p.): did not alter | time spent at the top of the tank (zebrafish (Danio rerio) [1]; 20 mg/kg i.p.): significant increase | time spent in the middle+top of the aquarium (zebrafish (Danio rerio) [1]; 20 mg/kg i.p.): significant increase | velocity (zebrafish (Danio rerio) [1]; 20 mg/kg i.p.): increased velocity | behavior in LDB test (zebrafish (Danio rerio) [2]; 20 mg/kg i.p.): only trends towards significant differences | overall behavioral effect in Danio rerio (zebrafish (Danio rerio) [3]; 20 mg/kg i.p.): anxiolytic-like responses

AGAS: tetrapeptide AGAS, best combinatorial tetrapeptide according to the score values
behavior in NT test (zebrafish (Danio rerio) [1]; 1 mg/kg i.p.): didn't show any prominent effects | behavior in NT test (zebrafish (Danio rerio) [1]; 5 mg/kg i.p.): didn't show any prominent effects | velocity (zebrafish (Danio rerio) [1]; 10 mg/kg i.p.): greater velocity | time spent at the top of the tank (zebrafish (Danio rerio) [1]; 20 mg/kg i.p.): decreased time spent at the top of the aquarium | velocity (zebrafish (Danio rerio) [1]; 20 mg/kg i.p.): trend towards significant reduction of velocity | behavior in LDB test (zebrafish (Danio rerio) [2]; 1 mg/kg i.p.): didn't show any prominent effects | behavior in LDB test (zebrafish (Danio rerio) [2]; 5 mg/kg i.p.): didn't show any prominent effects | latency to enter the light compartment (zebrafish (Danio rerio) [2]; 10 mg/kg i.p.): decreased latency to enter the light compartment | number of transitions between compartments of LDB (zebrafish (Danio rerio) [2]; 10 mg/kg i.p.): increased number of transitions between compartments | behavior in LDB test (zebrafish (Danio rerio) [2]; 20 mg/kg i.p.): no differences between experimental and control groups | overall behavioral effect in Danio rerio (zebrafish (Danio rerio) [3]; 1 mg/kg i.p.): did not affect the behavior | overall behavioral effect in Danio rerio (zebrafish (Danio rerio) [3]; 5 mg/kg i.p.): did not affect the behavior | overall behavioral effect in Danio rerio (zebrafish (Danio rerio) [3]; 10 mg/kg i.p.): prominent anxiolytic-like activity | overall behavioral effect in Danio rerio (zebrafish (Danio rerio) [3]; 20 mg/kg i.p.): anxiogenic-like or sedative effect | number of center entries (BALB/C mice [4]; [7]): 19.3±3 | freezing time (BALB/C mice [5]; 10 mg/kg i.p.): 38.7 ± 9.6 s | number of rears on the closed arms (BALB/C mice [5]; 10 mg/kg i.p.): 10.2±2.9 | distance travelled (BALB/C mice [5]; [7]): 973±78.7 cm | behavior in FST (BALB/C mice [6]; 10 mg/kg i.p.): did not affect the behavior

COCCCC/C(=N\OCCN)c1ccc(C(F)(F)F)cc1 [FA, Fluvoxamine]
time of active swimming (BALB/C mice [6]; 20 mg/kg i.p.): 103.5 ± 15.1 s | time spent immobile (BALB/C mice [6]; 20 mg/kg i.p.): 229 ± 19.8 s

DSGH: combinatorial tetrapeptide with the best occurrence and the LOGO analysis
behavior in NT test (zebrafish (Danio rerio) [1]; 0.5 mg/kg i.p.): did not produced any behavioral effects | behavior in NT test (zebrafish (Danio rerio) [1]; 10 mg/kg i.p.): did not affect the behavioral parameters | number of transitions to light (zebrafish (Danio rerio) [2]; 0.5 mg/kg i.p.): decreased number of transitions to light | time spent in the light compartment (zebrafish (Danio rerio) [2]; 0.5 mg/kg i.p., trend p<0.1): decreased time spent in the light compartment | time spent in the light compartment (zebrafish (Danio rerio) [2]; 1 mg/kg i.p.): trend towards increased time spent in the light compartment | latency to enter the light (zebrafish (Danio rerio) [2]; 1 mg/kg i.p., trend p<0.10): decreased latency to enter the light | behavior in LDB test (zebrafish (Danio rerio) [2]; 10 mg/kg i.p.): did not affect the behavioral parameters | overall behavioral effect in Danio rerio (zebrafish (Danio rerio) [3]; 0.5 mg/kg i.p.): anxiogenic-like effect | overall behavioral effect in Danio rerio (zebrafish (Danio rerio) [3]; 1 mg/kg i.p.): potent anxiolytic-like effect | overall behavioral effect in Danio rerio (zebrafish (Danio rerio) [3]; 10 mg/kg i.p.): failed to produce any behavioral changes | behavioral parameters in Open Field test (BALB/C mice [4]; 1 mg/kg i.p.): did not cause any changes of the behavioral parameters | behavior in EPM (BALB/C mice [5]): did not cause any changes of the behavioral parameters | behavioral parameters in FST (BALB/C mice [6]; 1 mg/kg i.p.): did not cause any changes of the behavioral parameters
